Patent US11987588B2, “Modulators of the beta-3 adrenergic receptor useful for the treatment or prevention of heart failure and disorders related thereto” (Arena Pharmaceuticals, Inc., priority 2017, dated 2024)

Biological target: Beta-3 Adrenergic Receptor (Homo sapiens (Human), UniProt P13945)
Assay: Homogeneous Time-Resolved Fluorescence (HTRF) cAMP antagonist assay, IC50 determination
Assay type: cell-based
Conditions: CHO-K1 cells stably expressing recombinant receptor, isoproterenol at EC90
How it was run: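 Antagonist mode: isoproterenol at its predetermined EC90 added after compound to recombinant CHO-K1 cells in IBMX-containing PBS, 1 h, room temperature. Compounds tested as 5-fold, 10-point dilutions, top final typically 10 or 100 μM. HTRF signal converted to cAMP via standard curve, giving IC50.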

Chain of Beta-3 Adrenergic Receptor (P13945 whole entry, species assumed): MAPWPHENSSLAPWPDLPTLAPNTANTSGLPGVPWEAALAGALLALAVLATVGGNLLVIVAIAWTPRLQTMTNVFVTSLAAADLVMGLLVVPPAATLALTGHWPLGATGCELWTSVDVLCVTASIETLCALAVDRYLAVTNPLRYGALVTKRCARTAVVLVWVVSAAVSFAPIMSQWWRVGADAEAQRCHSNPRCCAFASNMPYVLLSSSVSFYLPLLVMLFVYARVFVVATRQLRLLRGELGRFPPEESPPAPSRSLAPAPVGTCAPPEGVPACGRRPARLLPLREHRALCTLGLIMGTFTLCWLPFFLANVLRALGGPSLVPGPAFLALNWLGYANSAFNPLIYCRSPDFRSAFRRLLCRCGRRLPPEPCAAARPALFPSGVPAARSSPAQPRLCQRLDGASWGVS

SMILES	IC50
CNCc1ccc(-c2cccc(S(=O)(=O)N3CCC4(CC3)CC(NC[C@H](O)COc3cccc(S(=O)(=O)NC)c3)CO4)c2)cc1 (stereo partly drawn) [Compound 301, 3-((2S)-2-hydroxy-3-(8-(4′-((methylamino)methyl)biphenyl-3-ylsulfonyl)-1-oxa-8-azaspiro[4.5]decan-3-ylamino)propoxy)-N-methylbenzenesulfonamide]	31.6 nM
CCNCc1ccc(-c2cccc(S(=O)(=O)N3CCC4(CC3)CC(NC[C@H](O)COc3cccc(S(=O)(=O)NC)c3)CO4)c2)cc1 (stereo partly drawn) [Compound 302, 3-((2S)-3-(8-(4′-((ethylamino)methyl)biphenyl-3-ylsulfonyl)-1-oxa-8-azaspiro[4.5]decan-3-ylamino)-2-hydroxypropoxy)-N-methylbenzenesulfonamide]	458 nM
CNS(=O)(=O)c1cccc(OC[C@@H](O)CNC2COC3(CCN(S(=O)(=O)c4cccc(-c5ccc(CNC(C)C)cc5)c4)CC3)C2)c1 (stereo partly drawn) [Compound 303, 3-((2S)-2-hydroxy-3-(8-(4′-((isopropylamino)methyl)biphenyl-3-ylsulfonyl)-1-oxa-8-azaspiro[4.5]decan-3-ylamino)propoxy)-N-methylbenzenesulfonamide]	32.6 nM
CNS(=O)(=O)c1cccc(OC[C@@H](O)CNC2COC3(CCN(S(=O)(=O)c4cccc(-c5ccc(CNCCO)cc5)c4)CC3)C2)c1 (stereo partly drawn) [Compound 304, 3-((2S)-2-hydroxy-3-(8-(4′-((2-hydroxyethylamino)methyl)biphenyl-3-ylsulfonyl)-1-oxa-8-azaspiro[4.5]decan-3-ylamino)propoxy)-N-methylbenzenesulfonamide]	43 nM
CNS(=O)(=O)c1cccc(OC[C@@H](O)CNC2COC3(CCN(S(=O)(=O)c4cccc(-c5ccc(CNCCN(C)C)cc5)c4)CC3)C2)c1 (stereo partly drawn) [Compound 305, 3-((2S)-3-(8-(4′-((2-(dimethylamino)ethylamino)methyl)biphenyl-3-ylsulfonyl)-1-oxa-8-azaspiro[4.5]decan-3-ylamino)-2-hydroxypropoxy)-N-methylbenzenesulfonamide]	63.5 nM
CN(C)CCCNS(=O)(=O)c1cccc(OC[C@@H](O)CNC2COC3(CCN(S(=O)(=O)c4cccc(Cl)c4)CC3)C2)c1 (stereo partly drawn) [Compound 307, 3-((2S)-3-(8-(3-chlorophenylsulfonyl)-1-oxa-8-azaspiro[4.5]decan-3-ylamino)-2-hydroxypropoxy)-N-(3-(dimethylamino)propyl)benzenesulfonamide]	3370 nM
Cc1ccc(F)c(S(=O)(=O)N2CCC3(CC2)CC(NC[C@H](O)COc2cccc(S(=O)(=O)NCCCN(C)C)c2)CO3)c1 (stereo partly drawn) [Compound 309, N-(3-(dimethylamino)propyl)-3-((2S)-3-(8-(2-fluoro-5-methylphenylsulfonyl)-1-oxa-8-azaspiro[4.5]decan-3-ylamino)-2-hydroxypropoxy)benzenesulfonamide]	3000 nM
Cc1cc(S(=O)(=O)N2CCC3(CC2)CC(NC[C@H](O)COc2cccc(S(=O)(=O)NCCCN(C)C)c2)CO3)ccc1Br (stereo partly drawn) [Compound 310, 3-((2S)-3-(8-(4-bromo-3-methylphenylsulfonyl)-1-oxa-8-azaspiro[4.5]decan-3-ylamino)-2-hydroxypropoxy)-N-(3-(dimethylamino)propyl)benzenesulfonamide]	877 nM
CN(C)CCCNS(=O)(=O)c1cccc(OC[C@@H](O)CNC2COC3(CCN(S(=O)(=O)c4ccc5c(c4)NC(=O)CO5)CC3)C2)c1 (stereo partly drawn) [Compound 311, N-(3-(dimethylamino)propyl)-3-((2S)-2-hydroxy-3-(8-(3-oxo-3,4-dihydro-2H-benzo[b][1,4]oxazin-6-ylsulfonyl)-1-oxa-8-azaspiro[4.5]decan-3-ylamino)propoxy)benzenesulfonamide]	2000 nM
CN(C)CCCNS(=O)(=O)c1cccc(OC[C@@H](O)CNC2COC3(CCN(S(=O)(=O)c4ccc5c(c4)CCCC5)CC3)C2)c1 (stereo partly drawn) [Compound 314, N-(3-(dimethylamino)propyl)-3-((2S)-2-hydroxy-3-(8-(5,6,7,8-tetrahydronaphthalen-2-ylsulfonyl)-1-oxa-8-azaspiro[4.5]decan-3-ylamino)propoxy)benzenesulfonamide]	716 nM
CN(C)CCCNS(=O)(=O)c1cccc(OC[C@@H](O)CNC2COC3(CCN(S(=O)(=O)c4ccc(-c5ccccc5)s4)CC3)C2)c1 (stereo partly drawn) [Compound 315, N-(3-(dimethylamino)propyl)-3-((2S)-2-hydroxy-3-(8-(5-phenylthiophen-2-ylsulfonyl)-1-oxa-8-azaspiro[4.5]decan-3-ylamino)propoxy)benzenesulfonamide]	1070 nM
CN(C)CCCNS(=O)(=O)c1cccc(OC[C@@H](O)CNC2COC3(CCN(S(=O)(=O)c4ccc5c(c4)N(C)CCO5)CC3)C2)c1 (stereo partly drawn) [Compound 316, N-(3-(dimethylamino)propyl)-3-((2S)-2-hydroxy-3-(8-(4-methyl-3,4-dihydro-2H-benzo[b][1,4]oxazin-6-ylsulfonyl)-1-oxa-8-azaspiro[4.5]decan-3-ylamino)propoxy)benzenesulfonamide]	1940 nM
CC(=O)NS(=O)(=O)c1cccc(OC[C@@H](O)CNC2COC3(CCN(S(=O)(=O)c4ccc5ccccc5c4)CC3)C2)c1 (stereo partly drawn) [Compound 318, N-(3-((2S)-2-hydroxy-3-(8-(naphthalen-2-ylsulfonyl)-1-oxa-8-azaspiro[4.5]decan-3-ylamino)propoxy)phenylsulfonyl)acetamide]	2180 nM
CNS(=O)(=O)c1cccc(OC[C@@H](O)CNC2COC3(CCN(S(=O)(=O)c4cccc(-c5ccc(CNCC(C)C)cc5)c4)CC3)C2)c1 (stereo partly drawn) [Compound 319, 3-((2S)-2-hydroxy-3-(8-(4′-((isobutylamino)methyl)biphenyl-3-ylsulfonyl)-1-oxa-8-azaspiro[4.5]decan-3-ylamino)propoxy)-N-methylbenzenesulfonamide]	34.3 nM
CNS(=O)(=O)c1cccc(OC[C@@H](O)CNC2COC3(CCN(S(=O)(=O)c4cccc(-c5ccc(CNCCC(C)C)cc5)c4)CC3)C2)c1 (stereo partly drawn) [Compound 320, 3-((2S)-2-hydroxy-3-(8-(4′-((isopentylamino)methyl)biphenyl-3-ylsulfonyl)-1-oxa-8-azaspiro[4.5]decan-3-ylamino)propoxy)-N-methylbenzenesulfonamide]	26.3 nM
CNS(=O)(=O)c1cccc(OC[C@@H](O)CNC2COC3(CCN(S(=O)(=O)c4cccc(-c5ccc(CNCC(F)(F)F)cc5)c4)CC3)C2)c1 (stereo partly drawn) [Compound 321, 3-((2S)-2-hydroxy-3-(8-(4′-((2,2,2-trifluoroethylamino)methyl)biphenyl-3-ylsulfonyl)-1-oxa-8-azaspiro[4.5]decan-3-ylamino)propoxy)-N-methylbenzenesulfonamide]	70.5 nM
CNS(=O)(=O)c1cccc(OC[C@@H](O)CNC2COC3(CCN(S(=O)(=O)c4ccccn4)CC3)C2)c1 (stereo partly drawn) [Compound 322, 3-((2S)-2-hydroxy-3-(8-(pyridin-2-ylsulfonyl)-1-oxa-8-azaspiro[4.5]decan-3-ylamino)propoxy)-N-methylbenzenesulfonamide]	73.5 nM

Further lines, results first:

IC50	SMILES
26 nM	CNS(=O)(=O)c1cccc(OC[C@@H](O)CN[C@H]2COC3(CCN(S(=O)(=O)c4cccc(-c5ccc(OCC#N)cc5)c4)CC3)C2)c1 [Compound 298, 3-((S)-3-((R)-8-(4′-(cyanomethoxy)biphenyl-3-ylsulfonyl)-1-oxa-8-azaspiro[4.5]decan-3-ylamino)-2-hydroxypropoxy)-N-methylbenzenesulfonamide]
11.8 nM	CNS(=O)(=O)c1cccc(OC[C@@H](O)CN[C@@H]2COC3(CCN(S(=O)(=O)c4ccc5c(c4)N(C)CCO5)CC3)C2)c1 [Compound 299, 3-((S)-2-hydroxy-3-((S)-8-(4-methyl-3,4-dihydro-2H-benzo[b][1,4]oxazin-6-ylsulfonyl)-1-oxa-8-azaspiro[4.5]decan-3-ylamino)propoxy)-N-methylbenzenesulfonamide]
10.9 nM	CNS(=O)(=O)c1cccc(OC[C@@H](O)CN[C@H]2COC3(CCN(S(=O)(=O)c4ccc5c(c4)N(C)CCO5)CC3)C2)c1 [Compound 300, 3-((S)-2-hydroxy-3-((R)-8-(4-methyl-3,4-dihydro-2H-benzo[b][1,4]oxazin-6-ylsulfonyl)-1-oxa-8-azaspiro[4.5]decan-3-ylamino)propoxy)-N-methylbenzenesulfonamide]
65.4 nM	NS(=O)(=O)c1cccc(OC[C@@H](O)CNC2COC3(CCN(S(=O)(=O)c4ccc5ccccc5c4)CC3)C2)c1 (stereo partly drawn) [Compound 306, 3-((2S)-2-hydroxy-3-(8-(naphthalen-2-ylsulfonyl)-1-oxa-8-azaspiro[4.5]decan-3-ylamino)propoxy)benzenesulfonamide]
1820 nM	COc1ccc(S(=O)(=O)N2CCC3(CC2)CC(NC[C@H](O)COc2cccc(S(=O)(=O)NCCCN(C)C)c2)CO3)cc1C (stereo partly drawn) [Compound 308, N-(3-(dimethylamino)propyl)-3-((2S)-2-hydroxy-3-(8-(4-methoxy-3-methylphenylsulfonyl)-1-oxa-8-azaspiro[4.5]decan-3-ylamino)propoxy)benzenesulfonamide]
3170 nM	CN(C)CCCNS(=O)(=O)c1cccc(OC[C@@H](O)CNC2COC3(CCN(S(=O)(=O)c4ccc5nsnc5c4)CC3)C2)c1 (stereo partly drawn) [Compound 312, 3-((2S)-3-(8-(benzo[c][1,2,5]thiadiazol-5-ylsulfonyl)-1-oxa-8-azaspiro[4.5]decan-3-ylamino)-2-hydroxypropoxy)-N-(3-(dimethylamino)propyl)benzenesulfonamide]
4010 nM	Cc1c(S(=O)(=O)N2CCC3(CC2)CC(NC[C@H](O)COc2cccc(S(=O)(=O)NCCCN(C)C)c2)CO3)cnn1-c1ccccc1 (stereo partly drawn) [Compound 313, N-(3-(dimethylamino)propyl)-3-((2S)-2-hydroxy-3-(8-(5-methyl-1-phenyl-1H-pyrazol-4-ylsulfonyl)-1-oxa-8-azaspiro[4.5]decan-3-ylamino)propoxy)benzenesulfonamide]
1010 nM	CN(C)CCCNS(=O)(=O)c1cccc(OC[C@@H](O)CNC2COC3(CCN(S(=O)(=O)c4ccc5ccccc5c4)CC3)C2)c1 (stereo partly drawn) [Compound 317, N-(3-(dimethylamino)propyl)-3-((2S)-2-hydroxy-3-(8-(naphthalen-2-ylsulfonyl)-1-oxa-8-azaspiro[4.5]decan-3-ylamino)propoxy)benzenesulfonamide]
